Each compound was assayed against T1, human TGR5 (Homo sapiens, UniProt Q8TDU6) (assay: cAMP production assay in HEK293 cells stably expressing TGR5 (LANCE TR-FRET)). Conditions: 30 minutes stimulation, read-out: cAMP Production in 293-TGR5 Cells EC50.
T1 construct: expressed in transfected cells
T1 sequence (Q8TDU6 1-330): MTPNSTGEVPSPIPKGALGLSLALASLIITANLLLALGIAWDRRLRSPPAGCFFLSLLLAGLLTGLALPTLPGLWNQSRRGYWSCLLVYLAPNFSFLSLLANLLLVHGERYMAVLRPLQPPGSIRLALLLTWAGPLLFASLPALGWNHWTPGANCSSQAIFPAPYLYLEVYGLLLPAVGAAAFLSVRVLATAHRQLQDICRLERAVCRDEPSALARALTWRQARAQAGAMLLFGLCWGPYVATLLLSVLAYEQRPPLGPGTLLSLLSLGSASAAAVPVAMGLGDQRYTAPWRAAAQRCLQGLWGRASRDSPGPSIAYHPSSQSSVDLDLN
Type: cell-based
Experimental: HEK293 cells stably expressing TGR5 (HEK293-TGR5) were established by stably transfecting HEK-293 cells with an expression vector (pcDNA 3.1, Invetrogen) inserted with human TGR5 cDNA using Fugene6 (Roche, Indianapolis, Ind.) according to conventional methods. Cells were grown in DMEM (invitrogen, Carlsbad, Calif.) supplemented with 10% FBS, 1% penicillin/streptomycin under geneticin selection. The presence of TGR5 transcripts in these cells was confirmed using branched DNA (bDNA, Genospectra, Inc., Fremont Calif.) following the manufacturer's protocol and using specific probes for human TGR5. cAMP production assay was performed in high throughput 1536 well format using LANCE cAMP detection kit (Perkin Elmer Inc., Boston, Mass.) according to the manufacturer's protocol. Briefly, HEK293-TGR5 cells were harvested using non-enzymatic cell dissociation buffer (Invitrogen, Carlsbad, Calif.) and suspended in DMEM supplemented with 0.1% FBS at a density of 800,000 cells/ml. Alexa antibody was added to the cell suspension, and 4 ul of the mixture was dispensed in white opaque tissue culture treated Greiner 1536 well plates (USA Scientific, Inc., Ocala, Fla.). After an overnight incubation at 37 C in an atmosphere of 10% CO2 and 95% humidity, 1 ul of 5 mM IBMX (Sigma, St. Louis, Mo.) solution in DMEM was dispensed for a final concentration of 1 mM. Cells were then stimulated with test compounds for 30 minutes, after which time 5 ul of detection reagent was added and incubated for 1-7 hrs at room temperature. TR-FRET signal was detected using the Viewlux (Perkin Elmer Inc., Boston Mass.). EC50 values were determined using Graph Pad Prizm analysis (GraphPad Software, Inc). The EC50 values for a wide range of bile acids generated from this assay were in agreement with the values published in the scientific literature. […] The symbol (+) denotes an EC50 value of ≦10 μM while the symbol (−) denotes an EC50 value of >10 μM (see Table 1).

SMILES	EC50 [µM]
Cc1ccc2c(=O)n(NCc3ccc(C(F)(F)F)cc3)c(-c3ccc(F)cc3)nc2c1 [Example 82, 2-(4-fluorophenyl)-7-methyl-3-(4 (trifluoromethyl)benzylamino)quinazolin-4(3H)-one]	> 10
COc1ccc2nc(-c3ccccc3F)n(NCc3ccc(Br)cc3)c(=O)c2c1 [Example 26, 3-(4-bromobenzylamino)-2-(2-fluorophenyl)-6-methoxy quinazolin-4(3H)-one]	> 10
O=c1c2ccccc2nc(-c2ccccc2Cl)n1NCc1ccc(Br)cc1 [Example 10, 3-(4-bromobenzylamino)-2-(2-chlorophenyl)quinazolin-4(3H)-one]	≤ 10
Cc1cccc2nc(-c3ccc(F)cc3)n(NCc3ccc(Br)cc3)c(=O)c12 [Example 111, 3-(4-bromobenzylamino)-2-(4-fluorophenyl)-5-methylquinazolin-4(3H)-one]	≤ 10
O=c1c2ccccc2nc(-c2ccc(F)cc2)n1NCc1ccc(F)cc1F [Example 80, 3-(2,4-difluorobenzylamino)-2-(4-fluorophenyl)quinazolin-4(3H)-one]	≤ 10
O=c1c2cccc(O)c2nc(-c2ccc(F)cc2)n1NCc1ccc(Br)cc1 [Example 113, 3-(4-bromobenzylamino)-2-(4-fluorophenyl)-8-hydroxyquinazolin-4(3H)-one]	≤ 10
COc1cc(OC)cc(-c2nc3ccccc3c(=O)n2NCc2ccc(Br)cc2)c1 [Example 58, 3-(4-bromobenzylamino)-2-(3,5-dimethoxyphenyl)quinazolin-4(3H)-one]	≤ 10
O=c1c2ccccc2nc(-c2ccccn2)n1NCc1ccc(Br)cc1 [Example 31, 3-(4-bromobenzylamino)-2-(pyridin-2-yl)quinazolin-4(3H)-one]	≤ 10
O=C(O)c1ccc(CNn2c(-c3ccccc3F)nc3ccccc3c2=O)cc1 [Example 101, 4-((2-(2-fluorophenyl)-4-oxoquinazolin-3(4H)-ylamino)methyl)benzoic acid]	> 10
COc1cccc2c(=O)n(NCc3ccc(Cl)cc3)c(-c3ccc(F)cc3)nc12 [Example 77, 3-(4-Chloro-benzylamino)-2-(4-fluoro-phenyl)-8-methoxy-3H-quinazolin-4-one]	≤ 10
N#Cc1ccc(CNn2c(-c3ccc(F)cc3)nc3ccccc3c2=O)cc1 [Example 32, 4-((2-(4-fluorophenyl)-4-oxoquinazolin-3(4H)-ylamino)methyl)benzonitrile]	≤ 10
O=c1c2ccccc2nc(-c2ccc3c(c2)OCO3)n1NCc1ccc(Br)cc1 [Example 63, 2-(benzo[d][1,3]dioxol-5-yl)-3-(4-bromobenzylamino)quinazolin-4(3H)-one]	≤ 10
O=c1c2ccc(C(F)(F)F)cc2nc(-c2ccccc2F)n1NCc1ccc(Br)cc1 [Example 28, 3-(4-bromobenzylamino)-2-(2-fluorophenyl)-7-(trifluoromethyl)quinazolin-4(3H)-one]	> 10
COc1cc(-c2nc3ccccc3c(=O)n2NCc2ccc(Br)cc2)ccc1C [Example 65, 3-(4-bromobenzylamino)-2-(3-methoxy-4-methylphenyl)quinazolin-4(3H)-one]	≤ 10
O=c1c2ccccc2nc(-c2ccc(C(F)(F)F)cc2)n1NCc1ccc(Br)cc1 [Example 9, 3-(4-bromobenzylamino)-2-(4-(trifluoromethyl)phenyl)quinazolin-4(3H)-one]	≤ 10
CC(C)c1ccc(CNn2c(-c3ccc(F)cc3)nc3ccccc3c2=O)cc1 [Example 2, 2-(4-fluorophenyl)-3-(4-isopropylbenzylamino)quinazolin-4(3H)-one]	> 10
O=c1c2ccccc2nc(-c2cccc(Cl)c2)n1NCc1ccc(C(F)(F)F)cc1 [Example 49, 2-(3-chlorophenyl)-3-(4-(trifluoromethyl)benzylamino)quinazolin-4(3H)-one]	≤ 10
O=c1c2ccccc2nc(-c2ccc(F)cc2)n1NCc1cccnc1 [Example 37, 2-(4-fluorophenyl)-3-(pyridin-3-ylmethylamino)quinazolin-4(3H)-one]	> 10
COc1ccc2c(=O)n(NCc3ccc(Cl)cc3)c(-c3ccc(F)cc3)nc2c1 [Example 35, 3-(4-chlorobenzylamino)-2-(4-fluorophenyl)-7-methoxyquinazolin-4(3H)-one]	> 10
Cc1ccc(CNn2c(-c3ccccc3F)nc3ccccc3c2=O)cc1 [Example 22, 2-(2-fluorophenyl)-3-(4-methylbenzylamino)quinazolin-4(3H)-one]	≤ 10
O=c1c2ccccc2nc(-c2ccc(Cl)cc2)n1NCc1ccc(C(F)(F)F)cc1 [Example 52, 2-(4-chlorophenyl)-3-(4-(trifluoromethyl)benzylamino)quinazolin-4(3H)-one]	≤ 10
O=c1c2ccccc2nc(-c2ccccc2F)n1NCc1ccc(C(F)(F)F)cc1 [Example 17, 2-(2-fluorophenyl)-3-(4-(trifluoromethyl)benzylamino)quinazolin-4(3H)-one]	≤ 10
O=c1c2ccc(C(F)(F)F)cc2nc(-c2ccccc2F)n1NCc1ccc(F)cc1F [Example 29, 3-(2,4-difluorobenzylamino)-2-(2-fluorophenyl)-7-(trifluoromethyl)quinazolin-4(3H)-one]	> 10

Now from value to compound:

EC50 [µM]	SMILES
≤ 10	COc1cc(-c2nc3ccccc3c(=O)n2NCc2ccc(F)c(F)c2)ccc1C [Example 69, 3-(3,4-difluorobenzylamino)-2-(3-methoxy-4-methylphenyl)quinazolin-4(3H)-one]
≤ 10	O=c1c2ccccc2nc(-c2ccc(F)cc2)n1NCCc1ccc(Br)cc1 [Example 85, 3-(4-bromophenethylamino)-2-(4-fluorophenyl)quinazolin-4(3H)-one]
≤ 10	O=c1c2ccccc2nc(-c2cccc(O)c2)n1NCc1ccc(Br)cc1 [Example 96, 3-(4-bromobenzylamino)-2-(3-hydroxyphenyl)quinazolin-4(3H)-one]
≤ 10	O=c1c2ccccc2nc(-c2ccc(F)cc2)n1NCc1ccc(Cl)cc1 [Example 79, 3-(4-chlorobenzylamino)-2-(4-fluorophenyl)quinazolin-4(3H)-one]
≤ 10	COc1ccc(-c2nc3ccccc3c(=O)n2NCc2ccc(Br)cc2)cc1O [Example 118, 3-(4-bromobenzylamino)-2-(3-hydroxy-4-methoxyphenyl)quinazolin-4(3H)-one]
≤ 10	COc1ccc2nc(-c3ccccc3F)n(NCc3ccc(F)cc3F)c(=O)c2c1 [Example 27, 3-(2,4-difluorobenzylamino)-2-(2-fluorophenyl)-6-methoxy quinazolin-4(3H)-one]
≤ 10	O=c1c2ccc(O)cc2nc(-c2ccc(F)cc2)n1NCc1ccc(Br)cc1 [Example 95, 3-(4-bromobenzylamino)-2-(4-fluorophenyl)-7-hydroxy quinazolin-4(3H)-one]
≤ 10	O=c1c2ccccc2nc(-c2ccc(F)cc2)n1NCc1ccc2ccccc2c1 [Example 38, 2-(4-fluorophenyl)-3-(naphthalen-2-ylmethylamino)quinazolin-4(3H)-one]
≤ 10	O=c1c2cccc(O)c2nc(-c2ccc(F)cc2)n1NCc1ccc(Cl)cc1 [Example 114, 3-(4-chlorobenzylamino)-2-(4-fluorophenyl)-8-hydroxyquinazolin-4(3H)-one]
≤ 10	COc1cccc2c(=O)n(NCc3ccc(Br)cc3)c(-c3ccc(F)cc3)nc12 [Example 76, 3-(4-Bromo-benzylamino)-2-(4-fluoro-phenyl)-8-methoxy-3H-quinazolin-4-one]
≤ 10	COc1cc(-c2nc3ccccc3c(=O)n2NCc2ccc(Cl)cc2)ccc1Cl [Example 75, 3-(4-Chloro-benzylamino)-2-(4-chloro-3-methoxy-phenyl)-3H-quinazolin-4-one]
≤ 10	O=c1c2ccccc2nc(-c2ccc(O)nc2)n1NCc1ccc(Br)cc1 [Example 117, 3-(4-bromobenzylamino)-2-(6-hydroxypyridin-3-yl)quinazolin-4(3H)-one]
≤ 10	COc1cc(-c2nc3ccccc3c(=O)n2NCc2ccc(Br)cc2)ccc1O [Example 99, 3-(4-bromobenzylamino)-2-(4-hydroxy-3-methoxyphenyl)quinazolin-4(3H)-one]
≤ 10	Cc1ccc(-c2nc3ccccc3c(=O)n2NCc2ccc(Cl)cc2)cc1Cl [Example 110, 2-(3-chloro-4-methylphenyl)-3-(4-chlorobenzylamino)quinazolin-4(3H)-one]

From patent US20090035306A1 (KALYPSYS, INC., priority 2006, published 2009)
